Patent US8242125B2, “Heterobicyclic carboxamides as inhibitors for kinases” (Novartis AG, priority 2008, dated 2012)

target: T1, Ba/F3-Tel-KDR cells (Homo sapiens, UniProt P35968); experiment: Ba/F3-Tel-KDR cell viability inhibition assay (CellTiter-Glo); type: cell-based; settings: 48 hour incubation, read-out: IC50 (the source's name)
T1 construct: fused on or other part: N-terminal oligomerising part of TEL (ETV6) fused to the tyrosine kinase domain of KDR; P41212 (Transcription factor ETV6)
T1 sequence (P35968 whole entry, change not shown, the tested form may be a part): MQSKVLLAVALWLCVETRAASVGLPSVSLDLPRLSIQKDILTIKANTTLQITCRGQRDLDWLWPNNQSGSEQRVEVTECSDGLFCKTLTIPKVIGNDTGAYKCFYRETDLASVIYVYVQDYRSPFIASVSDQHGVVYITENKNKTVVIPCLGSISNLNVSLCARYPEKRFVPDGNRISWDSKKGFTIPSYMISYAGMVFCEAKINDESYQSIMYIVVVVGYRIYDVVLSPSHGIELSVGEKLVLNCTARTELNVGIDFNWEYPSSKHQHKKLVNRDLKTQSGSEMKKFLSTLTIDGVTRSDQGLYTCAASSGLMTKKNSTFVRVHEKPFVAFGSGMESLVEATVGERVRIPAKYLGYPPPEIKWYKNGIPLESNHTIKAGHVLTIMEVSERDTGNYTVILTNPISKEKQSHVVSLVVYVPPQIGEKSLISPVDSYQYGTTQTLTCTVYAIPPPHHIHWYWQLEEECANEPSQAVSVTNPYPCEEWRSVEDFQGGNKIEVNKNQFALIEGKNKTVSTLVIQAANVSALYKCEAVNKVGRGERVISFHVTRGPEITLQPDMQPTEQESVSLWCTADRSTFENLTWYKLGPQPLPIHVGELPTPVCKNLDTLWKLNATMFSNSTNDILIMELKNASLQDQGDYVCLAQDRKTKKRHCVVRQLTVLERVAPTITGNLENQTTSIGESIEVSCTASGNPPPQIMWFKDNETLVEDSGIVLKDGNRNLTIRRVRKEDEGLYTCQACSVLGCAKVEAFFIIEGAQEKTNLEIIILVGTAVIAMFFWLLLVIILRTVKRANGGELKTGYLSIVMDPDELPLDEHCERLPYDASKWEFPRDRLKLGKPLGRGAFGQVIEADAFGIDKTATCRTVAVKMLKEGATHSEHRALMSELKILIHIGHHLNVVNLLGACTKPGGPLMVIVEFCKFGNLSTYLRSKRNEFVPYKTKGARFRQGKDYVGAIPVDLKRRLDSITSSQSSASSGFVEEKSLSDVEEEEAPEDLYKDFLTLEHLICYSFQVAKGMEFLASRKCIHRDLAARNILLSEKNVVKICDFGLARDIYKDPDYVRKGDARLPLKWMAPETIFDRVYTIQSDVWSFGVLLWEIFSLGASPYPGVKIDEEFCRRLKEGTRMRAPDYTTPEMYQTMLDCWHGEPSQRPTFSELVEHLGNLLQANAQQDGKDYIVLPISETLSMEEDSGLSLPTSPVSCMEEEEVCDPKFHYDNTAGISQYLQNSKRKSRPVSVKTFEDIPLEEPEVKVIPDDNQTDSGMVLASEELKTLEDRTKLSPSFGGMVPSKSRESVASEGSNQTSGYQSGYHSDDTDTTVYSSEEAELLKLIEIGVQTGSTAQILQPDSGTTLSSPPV
Source text: This assay is a cell-based assay to measure the compound-mediated suppression of Ba/F3 cell proliferation and viability using the Luciferase bioluminescent assay commercially known as CellTiter-Glo™. In this case, a specifically modified cell line, Ba/F3-Tel-KDR is used. These cells are engineered such that intact signaling through the tyrosine kinase domain of KDR is critical for their survival. Inhibition of KDR signaling results in cell death which is quantitated using a cell viability assay. This is a homogeneous bioluminescent assay that yields a rapid, simple and sensitive determination of the number of viable cells in culture by generation of a luminescent signal proportional to the amount of ATP present in cells. KDR inhibitor compound dilutions are incubated with Ba/F3-Tel-KDR cells over a 48 hour period and the resulting cell viability is measured with a suitable luminometer.
This assay is performed in Ba/F3-Tel-KDR cells. Cells are cultured at 37° C. […] Medium is changed the day before the experiment. On Day 1, cells are plated into white solid bottom 384-well plates at 5000 cells/well in 25 μl culture medium. A ten-point dose response curve is prepared as follows: compounds are first serially diluted 3-fold in 100% DMSO, starting from 10 mM. […] 5 μl of diluted compound is added to cell plates with 25 μl culture medium. […] The final concentration of DMSO is 0.1%. Wells without or with cells plus 0.1% DMSO serve as controls. On Day 3, Lyophilized CellTiter-Glo buffer and substrate and the cell plates are first equilibrated to room temperature. Substrate is reconstituted in buffer and 30 μl reconstituted substrate is added to each well. After incubation for 10 minutes at room temperature, plates are read in a luminometer. Compounds are tested in a 10-point dose response and each concentration is run in triplicate on a given plate. Each plate is run in duplicate.

Compound	GI50 [nM]
C[C@H]1Cc2c(ncnc2Oc2ccc3c(ccn3C(=O)Nc3ccn(C(C)(C)C)n3)c2)CN1 [Example 54-V]	63
O=C(Nc1cc(-c2ccccc2)[nH]n1)n1ccc2cc(Oc3ncnc4c3CCNC4)ccc21 [Example 51-D]	11
CC(C)c1cc(NC(=O)n2ccc3cc(Oc4cc(CNC5CC5)ncn4)ccc32)n[nH]1 [Example 137-I]	100
CC(C)(CO)c1cc(NC(=O)n2ccc3cc(Oc4ncnc5c4CCNC5)ccc32)[nH]n1 [Example 49-B, 5-(5,6,7,8-Tetrahydro-pyrido[3,4-d]pyrimidin-4-yloxy)-indole-1-carboxylic acid [5-(2-hydroxy-1,1-dimethyl-ethyl)-2H-pyrazol-3-yl]-amide]	22
CS(=O)(=O)N1CCc2c(ncnc2Oc2ccc3c(ccn3C(=O)Nc3cccc(C(F)(F)F)c3)c2)C1 [Example 35, 5-(7-Methanesulfonyl-5,6,7,8-tetrahydro-pyrido[3,4-d]pyrimidin-4-yloxy)-indole-1-carboxylic acid (3-trifluoromethyl-phenyl)-amide]	13
C[C@H]1Cc2c(ncnc2Oc2ccc3c(ccn3C(=O)Nc3cc(C4(C)CC4)n[nH]3)c2F)CN1 [Example 54-H]	1
CNCc1cc(Oc2ccc3c(ccn3C(=O)Nc3cc(C(C)(C)C)[nH]n3)c2)ncn1 [Example 59-B, 5-(6-Methylaminomethyl-pyrimidin-4-yloxy)-indole-1-carboxylic acid (5-tert-butyl-2H-pyrazol-3-yl)-amide]	4
O=C(Nc1ccc(F)c(C(F)(F)F)c1)n1ccc2cc(Oc3cc(Cn4ncnn4)ncn3)ccc21 [Example 27-A]	5
CCN1Cc2ncnc(Oc3ccc4c(ccn4C(=O)Nc4cc5n(n4)CCC5(C)C)c3)c2C[C@@H]1C [Example 136-I]	1
Cc1c(Oc2ncnc3c2CNC3)ccc2c1ccn2C(=O)Nc1cc(C2CC2)on1 [Example 134-AC]	4
O=C(Nc1cc(F)cc(C(F)(F)F)c1)n1ccc2cc(Oc3ncnc4c3CCNC4)ccc21 [Example 33-H]	330
CS(=O)(=O)NC1CCN(Cc2cc(Oc3ccc4c(ccn4C(=O)Nc4cccc(C(F)(F)F)c4)c3)ncn2)CC1 [Example 39, 5-[6-(4-Methanesulfonylamino-piperidin-1-ylmethyl)-pyrimidin-4-yloxy]-indole-1-carboxylic acid (3-trifluoromethyl-phenyl)-amide]	2
CCn1nc(NC(=O)n2ccc3cc(Oc4cc(CNC)ncn4)ccc32)cc1C1CC1 [Example 137-AA]	2
O=C(Nc1cccc(C(F)(F)F)c1)n1ccc2cc(Oc3ccnc(CO)c3)ccc21 [Example 25-D, 5-(2-Hydroxymethyl-pyridin-4-yloxy)-indole-1-carboxylic acid (3-trifluoromethylphenyl)-amide]	3
C[C@H]1Cc2c(ncnc2Oc2ccc3c(ccn3C(=O)Nc3cc(C4(C(F)(F)F)CC4)on3)c2)CN1CC1CC1 [Example 136-K]	91
O=C(Nc1ccc(F)c(C(F)(F)F)c1)n1ccc2cc(Oc3ncnc4c3CCNC4)ccc21 [Example 33-D]	189
COCc1cc(Oc2ccc3c(ccn3C(=O)Nc3ccc(F)c(C(F)(F)F)c3)c2)ncn1 [Example 20-C]	6
C[C@H]1Cc2c(ncnc2Oc2ccc3c(ccn3C(=O)Nc3cc(C4CC4)on3)c2)CN1C [Example 136-J]	36
CC(=O)N1CC2C[C@H]1CN2Cc1cc(Oc2ccc3c(ccn3C(=O)Nc3cccc(C(F)(F)F)c3)c2)ncn1 (stereo in doubt) [Example 98-B, 5-[6-((1R,4S)-5-Acetyl-2,5-diaza-bicyclo[2.2.1]hept-2-ylmethyl)-pyrimidin-4-yloxy]-indole-1-carboxylic acid (3-trifluoromethyl-phenyl)-amide]	< 1
CCN(CC)CCC(=O)N1CCc2c(ncnc2Oc2ccc3c(ccn3C(=O)Nc3cccc(C(F)(F)F)c3)c2)C1 [Example 40, 5-[7-(3-Diethylamino-propionyl)-5,6,7,8-tetrahydro-pyrido[3,4-d]pyrimidin-4-yloxy]-indole-1-carboxylic acid (3-trifluoromethyl-phenyl)-amide]	13
O=C(Nc1cccc(C(F)(F)F)c1)n1ccc2c(F)c(Oc3ncnc4c3CCNC4)ccc21 [Example 33-E]	9

Compound	GI50 [nM]
Cn1ccc2c(NC(=O)n3ccc4cc(Oc5ncnc6c5CNC6)ccc43)cccc21 [Example 111-B, 5-(6,7-dihydro-5H-pyrrolo[3,4-d]pyrimidin-4-yloxy)-indole-1-carboxylic acid (1-methyl-1H-indol-4-yl)-amide]	10
CNC(=O)c1cc(Oc2ccc3c(ccn3C(=O)Nc3cccc(C(F)(F)F)c3)c2)ccn1 [Example 28-B, 5-(2-Methylcarbamoyl-pyridin-4-yloxy)-indole-1-carboxylic acid (3-trifluoromethyl-phenyl)-amide]	11
Cc1c(NC(=O)n2ccc3cc(Oc4ncnc5c4CNC5)ccc32)noc1C1(C)CC1 [Example 134-AM]	6
CC(=O)N1Cc2ncnc(Oc3ccc4c(ccn4C(=O)Nc4cc(C5CC5)on4)c3C)c2C[C@@H]1C [Example 135-BE]	< 1
CNCc1cc(Oc2ccc3c(ccn3C(=O)Nc3cc(C)n(CC(F)(F)F)n3)c2)ncn1 [Example 137-P]	11
Cc1c(Oc2ncnc3c2C[C@H](C)NC3)ccc2c1ccn2C(=O)Nc1cc(C2CC2)on1 [Example 134-AG]	95
CNCc1cc(Oc2ccc3c(ccn3C(=O)Nc3cc(C4CC4)[nH]n3)c2)ncn1 [Example 137-F]	19
CCCC(=O)N1Cc2ncnc(Oc3ccc4c(ccn4C(=O)Nc4cc(C5CC5)on4)c3)c2C[C@@H]1C [Example 135-BI]	3
CC(C)Cc1cc(NC(=O)n2ccc3cc(Oc4ncnc5c4CNC5)ccc32)no1 [Example 57-N, 5-(6,7-dihydro-5H-pyrrolo[3,4-d]pyrimidin-4-yloxy)-indole-1-carboxylic acid (5-isobutyl-isoxazol-3-yl)-amide]	91
CCN1Cc2ncnc(Oc3ccc4c(ccn4C(=O)Nc4cc(C5(C(F)(F)F)CC5)on4)c3)c2C[C@@H]1C [Example 136-B]	2
O=C(Nc1cccc(C(F)(F)F)c1)n1ccc2cc(Oc3cc(CN4CCCC4)ncn3)ccc21 [Example 19-K]	222
O=C(Nc1cccc(C(F)(F)F)c1)n1ccc2cc(Oc3ccnc(CCN4CCOCC4)n3)ccc21 [Example 73-D, 5-(2-(2-morpholinoethyl)pyrimidin-4-yloxy)-N-(3-(trifluoromethyl)phenyl)-1H-indole-1-carboxamide]	9
O=C(Nc1ccc(F)c(C(F)(F)F)c1)n1ccc2cc(Oc3cc(CNC4CC4)ncn3)ccc21 [Example 19-Y]	23
C[C@H]1Cc2c(ncnc2Oc2ccc3c(ccn3C(=O)Nc3cc(C4CC4)on3)c2)CN1C(=O)C1CC1 [Example 135-D]	< 1
C[C@@H]1Cc2c(ncnc2Oc2ccc3c(ccn3C(=O)Nc3cc(C4(C)CC4)n[nH]3)c2F)CN1 [Example 54-I]	< 1
O=C(Nc1cccc(C(F)(F)F)c1F)n1ccc2cc(Oc3ncnc4c3CNC4)ccc21 [Example 45-G]	3
CNCc1cc(Oc2ccc3c(ccn3C(=O)Nc3cc(C4CC4)n(C4CC4)n3)c2)ncn1 [Example 137-AB]	1
Cc1cc2cc(Oc3ncnc4c3CNC4)ccc2n1C(=O)Nc1cc(C(C)(C)C)on1 [Example 57-C, 5-(6,7-dihydro-5H-pyrrolo[3,4-d]pyrimidin-4-yloxy)-2-methyl-indole-1-carboxylic acid (5-tert-butyl-isoxazol-3-yl)-amide]	< 1
Cc1cc2cc(Oc3ncnc4c3CCNC4)ccc2n1C(=O)Nc1cccc(C(F)(F)F)c1 [Example 33-L]	87
CNCc1cc(Oc2ccc3c(ccn3C(=O)Nc3ccc(OC)c(C(F)(F)F)c3)c2)ncn1 [Example 76-E, N-(4-methoxy-3-(trifluoromethyl)phenyl)-5-(6-((methylamino)methyl)pyrimidin-4-yloxy)-1H-indole-1-carboxamide]	< 1
CS(=O)(=O)Cc1cc(Oc2ccc3c(ccn3C(=O)Nc3cccc(C(F)(F)F)c3)c2F)ncn1 [Example 87-E, 4-Fluoro-5-(6-methanesulfonylmethyl-pyrimidin-4-yloxy)-indole-1-carboxylic acid (3-trifluoromethyl-phenyl)-amide]	7
